In patent publication US6602856B1, “Antagonists of alpha-melanocyte stimulating hormone and methods based thereon” (priority 1995, dated 2003):
Non-standard residues stand in square brackets, D forms with d. No end group written: not given here. Nle = CCCC[C@H](N)C(=O)O

Assays:
[1] = tested on: vasoactive intestinal peptide (VIP) activated pigment dispersion in Xenopus melanophores; conditions: read-out: EC50 (pigment dispersion)
Description: (§1) Each point represents the mean and SSD of four independent transmittance measurements. Ti=initial transmittance (2 min.). Tf=final transmittance (60 min.).
(§2) For dose-response studies all tripeptides were synthesized on Rink Amide MBHA resin 0.25 mmol scale using standard Fmoc chemistry. After synthesis, peptides were purified suing HPLC and reverse-phase chromatography on a C18 column. The dose-response curves were obtained by microtiter plate assays (Potenza et al, 1992, Pigment Cell Res. 5, 372-378). Melanophore cells (18,000/well) were plated on 96-well tissue culture plates (Falcon).
(§3) The 221,184 component library was organized as 96 sub-libraries with 2,304 different peptide combinations per pool, each defined by the chemical structure of the amino terminal position.

[2] = target: T1, endogenous amphibian MSH-receptors (Xenopus laevis, UniProt A0A1L8GF34); assay type: cell-based; conditions: against 15 nM α-MSH; melanophores pretreated with 1 nM melatonin; mean±SE
T1 sequence (A0A1L8GF34 1-317): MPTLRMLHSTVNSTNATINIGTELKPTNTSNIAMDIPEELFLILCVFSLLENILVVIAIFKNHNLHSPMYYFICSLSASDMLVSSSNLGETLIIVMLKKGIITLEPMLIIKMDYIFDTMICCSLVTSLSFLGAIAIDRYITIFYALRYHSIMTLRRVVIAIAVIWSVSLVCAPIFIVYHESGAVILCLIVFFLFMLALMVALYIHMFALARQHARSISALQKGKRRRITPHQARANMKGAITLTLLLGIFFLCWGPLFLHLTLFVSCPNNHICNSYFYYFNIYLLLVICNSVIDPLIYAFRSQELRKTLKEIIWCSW
Description: Melanin dispersion responses were quantitated by measuring transmittance through a monolayer of cultured melanophores pretreated with 1 nM melatonin (Potenza, et. al., 1992, Anal Biochem. 206, 315-22) and curve fit with a logistic equation (De Lean et al., 1978, Am J. Physiol. 235, E97-E102).
Broken lines indicate 99% confidence level.
as §1, §2

[3] = tested on: [Arg^8]-vasotocin (AVT) activated pigment dispersion in Xenopus melanophores; conditions: read-out: EC50 (pigment dispersion)
Description: as §1, §2, §3

[4] = tested on: cAMP stimulation evoked by AVT; test: AVT evoked intracellular cAMP stimulation in Xenopus melanophores; assay type: cell-based, Xenopus laevis; conditions: AVT 8 nM
Description: (§4) Oxytocin antagonist GVT ([d(CH2)5, Tyr (Me)^2, Orn^8]-Vasotocin; from Peninsula), at 20 μM, is used as a control to block responses evoked by 8 Nm AVT. Intracellular CAMP measurements were taken from confluent Xenopus melanophores grown in 24-well tissue culture plates (Falcon). Each bar represents the mean and SSD of four independent measurements. *(T-test; P<0.001) for all groups except those bearing asterisks.
(§5) Melanophores were plated confluently into 24-well tissue culture (Falcon) plates two days before the assay. Immediately prior to an assay, cells were washed with 70% L-15 medium (Sigma) containing 0.05% bovine serum albumin and then treated with 1 nm melatonin in the same medium. Then, cells were washed for 5 min in 70% L-15+0.05% bovine serum albumin+0.5 mm 3-isobutyl-1-methylxanthine (Aldrich)+1 nm melatonin, followed by 30 min of treatment with the test drug in the same media. After the drug treatment, cells were washed twice with 70% phosphate-buffered saline.
(§6) Oxytocin antagonist GVT ([d(CH2)5, Tyr (Me)^2, Orn^8]-Vasotocin; from Peninsula), at 20 μM, is used as a control to block responses evoked by 8 nM AVT.

[5] = tested on: α-MSH mediated cAMP second messenger stimulation; test: α-MSH mediated intracellular cAMP stimulation in Xenopus melanophores; assay type: cell-based, Xenopus laevis; conditions: peptide at 40 μM; α-MSH 10 nM
Description: as §4, §5, §6

| Substance | IC50 (μM) [2] | also measured |
| --- | --- | --- |
| Vasoactive Intestinal Peptide [VIP] | – | EC50 [1]: ~1 nM |
| D-Trp-Arg-εAhx-NH2 [A12] | Inactive | – |
| [dW]-Asp-[Nle]-NH2 [B8] | Inactive | – |
| [Arg^8]-vasotocin [AVT] | – | EC50 [3]: ~2 nM |
| [d(CH2)5, Tyr (Me)^2, Orn^8]-Vasotocin [GVT, reference compound] | – | block of responses evoked by AVT (cAMP) ([4]; antagonist at 20 μM, control): block |
| D-Trp-Arg-βAla-NH2 [A14] | Inactive | – |
| D-Trp-Arg-γAbu-NH2 [A11] | Inactive | – |
| D-Trp-Arg-Nle-NH2 [A2] | – | block of α-MSH mediated cAMP stimulation [5]: blocks; block of cAMP stimulation evoked by AVT ([4]; peptide at 40 μM): does not block |
| D-Trp-Arg-Ala-NH2 [A13] | Inactive | – |
